Results published in patent US20090221436A1, “PROCESS FOR DETERMINING TARGET FUNCTION AND IDENTIFYING DRUG LEADS” (priority 2000, published 2009).

What was measured:
P38 MAP kinase [1] = target: T1, P38 MAP kinase (Homo sapiens, UniProt Q16539); conditions: stated as a known property of the ligand; cited from earlier work
T1 construct: purchased Sigma

tubulin = assay: HPLC based Chemical Array Assay: protein-bound compounds separated from free compounds, UV and mass spectrum of protein fraction; format: binding; conditions: 10 compound mixture 0.5 uM each, tubulin 0, 5 and 20 uM, GFF II column
Description: (§1) Drug-like chemical compounds representing a collection of drug-like chemical scaffolds (Sigma-Aldrich, ICN, Calbiochem) were weighed and mixed to a final concentration of 20 uM each in 50 mM ammonium acetate pH 7, 10% methanol. 1 uM to 20 uM tubulin or P38 MAP kinase (Sigma) were dispensed into HPLC low volume sample cuvettes (Waters) and mixed with 0.5 uM to 20 uM compounds.
(§2) The compounds were eluted using an acetonitrile gradient past a UV detector and into a TOF mass spectrometer (Micromass LCT). […] In other mass spectrometry instruments, fragmentation can be achieved in a collision cell. The fragmentation pattern which is characteristic for each compound consists of the larger parent peak and other peaks representing fragments of the chemical compound or their isotopes. […] Alternatively, one or more characteristic isotope(s) of the parent peak representing the molecular weight of the compound was compared with the standard to identify the compound that bound the protein target. In another alternative analysis, the parent peak representing the molecular weight of the compound was itself compared with the standard to identify the compound. Sometimes, the combination of these methods was also used to identify the compound.

P38 MAP kinase [2] = target: T1, P38 MAP kinase; assay: as above; format: binding; conditions: for identity by mass spectrum of the compound extracted from the mixture and released from the protein: 5 uM P38 MAP kinase + 5 uM mixture of Quinine and 86002, Diol column
Description: as §1, §2

T1 sequence (Q16539 whole entry): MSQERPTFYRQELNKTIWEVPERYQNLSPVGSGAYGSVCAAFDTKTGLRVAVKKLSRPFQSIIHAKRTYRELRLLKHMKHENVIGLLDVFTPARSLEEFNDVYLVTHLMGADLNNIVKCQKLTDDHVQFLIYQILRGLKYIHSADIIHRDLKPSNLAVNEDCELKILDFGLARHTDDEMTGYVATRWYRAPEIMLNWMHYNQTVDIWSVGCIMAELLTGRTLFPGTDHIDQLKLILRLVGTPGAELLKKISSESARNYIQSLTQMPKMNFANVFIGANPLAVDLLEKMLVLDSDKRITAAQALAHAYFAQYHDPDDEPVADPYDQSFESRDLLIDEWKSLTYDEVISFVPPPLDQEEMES

mass spectrum of the collected protein fraction compared with the standard (P38 MAP kinase [2]; 5 uM P38 MAP kinase + 5 uM compound alone, Diol column)	reduction of the compound's UV peak (unbound compound) with increasing P38 (P38 MAP kinase [2]; 2-compound mixture 5 uM each, P38 0, 2.5, 5 and 10 uM, Diol column)	level of the compound's characteristic peaks in the mass spectrum of the protein fraction (P38 MAP kinase [2]; 10 compound mixture 0.5 uM each, GFF II column)	reduction of the compound's UV peak (unbound compound) with increasing P38 (P38 MAP kinase [2]; 10 compound mixture 0.5 uM each, P38 0, 3.5 and 5 uM, GFF II column)	level of the compound's characteristic peak in the mass spectrum of the protein fraction (P38 MAP kinase [2]; 100 compound mixture 20 uM each, P38 2 uM, GFF II column)	SMILES	affinity for the P38 MAP kinase protein target (P38 MAP kinase [1])	reduction of the compound's UV peak (unbound compound) with increasing tubulin (tubulin)	identity by mass spectrum of the compound extracted from the mixture and released from the protein (P38 MAP kinase [2])
corresponded to the 86002 standard	concentration dependant reduction	at a level far higher than other peaks	concentration dependent reduction	at a level far higher than other peaks	Fc1ccc(-c2nc3n(c2-c2ccncc2)CCS3)cc1 [SKB86002]	micromolar affinity	negligible reduction	identified as 86002
					C=C[C@H]1CN2CC[C@H]1C[C@H]2[C@H](O)c1ccnc2ccc(OC)cc12.Cl [quinine, quinine monohydrochloride]			not quinine
